From PubChem BioAssay (NCI)
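Step 1: Grow cells in 96-well plates. Step 2: Expose to compound for 48 hours at 5 concentrations. Step 3: Interpolate endpoints linearly; if unreached, use highest concentration. Definition used: TGI = concentration required for complete inhibition of growth.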

Assays:
Assay in all cases: DTP human tumour cell line panel, 48 h
SF-295 CNS = system: SF-295 CNS
DU-145 prostate = system: DU-145 prostate
SW-620 colon = system: SW-620 colon
786-0 renal = system: 786-0 renal
UO-31 renal = system: UO-31 renal
T-47D breast = system: T-47D breast
SK-MEL-5 melanoma = system: SK-MEL-5 melanoma
MDA-MB-435 = system: MDA-MB-435
MCF7 breast = system: MCF7 breast
UACC-257 melanoma = system: UACC-257 melanoma
MOLT-4 leukemia = system: MOLT-4 leukemia
OVCAR-5 ovarian = system: OVCAR-5 ovarian
OVCAR-3 ovarian = system: OVCAR-3 ovarian
RPMI-8226 leukemia = system: RPMI-8226 leukemia
NCI-H460 lung = system: NCI-H460 lung
SK-MEL-2 melanoma = system: SK-MEL-2 melanoma
HCT-15 colon = system: HCT-15 colon
NCI-H226 lung = system: NCI-H226 lung
HOP-92 NSCLC = system: HOP-92 NSCLC
MDA-N = system: MDA-N
SK-OV-3 ovarian = system: SK-OV-3 ovarian
HT29 colon = system: HT29 colon
SF-539 CNS = system: SF-539 CNS
SF-268 CNS = system: SF-268 CNS
ACHN renal = system: ACHN renal
KM12 colon = system: KM12 colon
HCC-2998 colon = system: HCC-2998 colon
NCI-H23 lung = system: NCI-H23 lung
A498 renal = system: A498 renal
CCRF-CEM leukemia = system: CCRF-CEM leukemia
NCI-H522 lung = system: NCI-H522 lung
HCT-116 colon = system: HCT-116 colon
K-562 leukemia = system: K-562 leukemia
HS 578T breast = system: HS 578T breast
HL-60(TB) leukemia = system: HL-60(TB) leukemia
EKVX NSCLC = system: EKVX NSCLC
IGROV1 ovarian = system: IGROV1 ovarian
U251 CNS = system: U251 CNS
UACC-62 melanoma = system: UACC-62 melanoma
SNB-19 CNS = system: SNB-19 CNS
OVCAR-8 ovarian = system: OVCAR-8 ovarian
MDA-MB-231 breast = system: MDA-MB-231 breast
SK-MEL-28 melanoma = system: SK-MEL-28 melanoma
COLO 205 colon = system: COLO 205 colon
TK-10 renal = system: TK-10 renal
SN12C renal = system: SN12C renal
CAKI-1 renal = system: CAKI-1 renal
LOX IMVI melanoma = system: LOX IMVI melanoma
PC-3 prostate = system: PC-3 prostate
SNB-75 CNS = system: SNB-75 CNS
M14 melanoma = system: M14 melanoma
BT-549 breast = system: BT-549 breast
NCI/ADR-RES ovarian = system: NCI/ADR-RES ovarian
OVCAR-4 ovarian = system: OVCAR-4 ovarian
A549 NSCLC = system: A549 NSCLC
SR leukemia = system: SR leukemia
RXF 393 renal = system: RXF 393 renal
HOP-62 NSCLC = system: HOP-62 NSCLC

## Cc1ccsc1C(=S)Nc1ccc(Cl)c(C(=O)OC(C(C)C)C(C)C)c1
SF-295 CNS
  TGI: > 100 µM
DU-145 prostate
  TGI: > 100 µM
SW-620 colon
  TGI: 98.8 µM
786-0 renal
  TGI: > 100 µM
UO-31 renal
  TGI: > 100 µM
T-47D breast
  TGI: > 100 µM
SK-MEL-5 melanoma
  TGI: 33 µM
MDA-MB-435
  TGI: 63.1 µM
MCF7 breast
  TGI: > 100 µM
UACC-257 melanoma
  TGI: > 100 µM
MOLT-4 leukemia
  TGI: 55.6 µM
OVCAR-5 ovarian
  TGI: > 100 µM
OVCAR-3 ovarian
  TGI: 33.5 µM
RPMI-8226 leukemia
  TGI: 45.1 µM
NCI-H460 lung
  TGI: > 100 µM
SK-MEL-2 melanoma
  TGI: 25.8 µM
HCT-15 colon
  TGI: > 100 µM
NCI-H226 lung
  TGI: > 100 µM
HOP-92 NSCLC
  TGI: 61.3 µM
MDA-N
  TGI: > 100 µM
SK-OV-3 ovarian
  TGI: > 100 µM
HT29 colon
  TGI: 71.6 µM
SF-539 CNS
  TGI: > 100 µM
SF-268 CNS
  TGI: > 100 µM
ACHN renal
  TGI: > 100 µM
KM12 colon
  TGI: > 100 µM
HCC-2998 colon
  TGI: > 100 µM
NCI-H23 lung
  TGI: > 100 µM
A498 renal
  TGI: > 100 µM
CCRF-CEM leukemia
  TGI: > 100 µM
NCI-H522 lung
  TGI: 81.8 µM
HCT-116 colon
  TGI: 75.5 µM
K-562 leukemia
  TGI: > 100 µM
HS 578T breast
  TGI: > 100 µM
HL-60(TB) leukemia
  TGI: 31.5 µM
EKVX NSCLC
  TGI: > 100 µM
IGROV1 ovarian
  TGI: > 100 µM
U251 CNS
  TGI: 97.1 µM
UACC-62 melanoma
  TGI: > 100 µM
SNB-19 CNS
  TGI: 91.7 µM
OVCAR-8 ovarian
  TGI: > 100 µM
MDA-MB-231 breast
  TGI: 71.3 µM
SK-MEL-28 melanoma
  TGI: > 100 µM
COLO 205 colon
  TGI: 26.1 µM
TK-10 renal
  TGI: > 100 µM
SN12C renal
  TGI: > 100 µM
CAKI-1 renal
  TGI: 59.8 µM
LOX IMVI melanoma
  TGI: 55.3 µM
PC-3 prostate
  TGI: 61.8 µM
SNB-75 CNS
  TGI: 95.3 µM
M14 melanoma
  TGI: > 100 µM
BT-549 breast
  TGI: 61.4 µM
NCI/ADR-RES ovarian
  TGI: > 100 µM
OVCAR-4 ovarian
  TGI: > 100 µM
A549 NSCLC
  TGI: > 100 µM

## C(=N/Nc1ccc(-c2nc3ccccc3[nH]2)cc1)/c1c(-c2ccccc2)[nH]c2ccccc12
SF-295 CNS
  TGI: 12.7 µM
DU-145 prostate
  TGI: > 100 µM
SW-620 colon
  TGI: 75 µM
786-0 renal
  TGI: > 100 µM
UO-31 renal
  TGI: > 100 µM
T-47D breast
  TGI: > 100 µM
SK-MEL-5 melanoma
  TGI: > 100 µM
MDA-MB-435
  TGI: 0.785 µM
MCF7 breast
  TGI: > 100 µM
UACC-257 melanoma
  TGI: > 100 µM
MOLT-4 leukemia
  TGI: > 100 µM
OVCAR-3 ovarian
  TGI: 0.591 µM
RPMI-8226 leukemia
  TGI: 0.82 µM
NCI-H460 lung
  TGI: 32.3 µM
SK-MEL-2 melanoma
  TGI: 0.794 µM
HCT-15 colon
  TGI: > 100 µM
NCI-H226 lung
  TGI: 6.47 µM
HOP-92 NSCLC
  TGI: > 100 µM
MDA-N
  TGI: 0.185 µM
SK-OV-3 ovarian
  TGI: 20.5 µM
SF-539 CNS
  TGI: 55.2 µM
SF-268 CNS
  TGI: > 100 µM
ACHN renal
  TGI: > 100 µM
KM12 colon
  TGI: > 100 µM
HCC-2998 colon
  TGI: 1.22 µM
NCI-H23 lung
  TGI: > 100 µM
SR leukemia
  TGI: 17.1 µM
CCRF-CEM leukemia
  TGI: > 100 µM
NCI-H522 lung
  TGI: 2.02 µM
HCT-116 colon
  TGI: 16.8 µM
K-562 leukemia
  TGI: 11.9 µM
HS 578T breast
  TGI: 0.889 µM
HL-60(TB) leukemia
  TGI: 1.06 µM
EKVX NSCLC
  TGI: > 100 µM
RXF 393 renal
  TGI: > 100 µM
IGROV1 ovarian
  TGI: > 100 µM
U251 CNS
  TGI: 8.69 µM
OVCAR-8 ovarian
  TGI: > 100 µM
MDA-MB-231 breast
  TGI: 12 µM
SK-MEL-28 melanoma
  TGI: > 100 µM
TK-10 renal
  TGI: > 100 µM
HOP-62 NSCLC
  TGI: 30.9 µM
CAKI-1 renal
  TGI: > 100 µM
LOX IMVI melanoma
  TGI: > 100 µM
PC-3 prostate
  TGI: 3.92 µM
SNB-75 CNS
  TGI: 59.9 µM
M14 melanoma
  TGI: > 100 µM
NCI/ADR-RES ovarian
  TGI: 17.4 µM
OVCAR-4 ovarian
  TGI: > 100 µM
